Measurements taken from PubChem BioAssay (NCI).
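Where inhibition never reached the appropriate level, the endpoint shown equals the highest concentration tested. Otherwise, values were interpolated linearly from a five-concentration, 48-hour dose response in 96-well plates. Definition used: TGI = concentration required for complete inhibition of growth.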

Experiments:
Assay in all cases: NCI tumour cell line growth inhibition, 48 h
[1] = tested on: 786-0 renal
[2] = tested on: HOP-92 NSCLC
[3] = tested on: OVCAR-5 ovarian
[4] = tested on: UACC-257 melanoma
[5] = tested on: UO-31 renal
[6] = tested on: HCT-116 colon
[7] = tested on: MALME-3M melanoma
[8] = tested on: IGROV1 ovarian
[9] = tested on: SF-268 CNS
[10] = tested on: COLO 205 colon

SMILES	TGI [1]	TGI [2]	TGI [3]	TGI [4]	TGI [5]	TGI [6]	TGI [7]	TGI [8]	TGI [9]	TGI [10]
CCN1CC2(C)CCC(OC)C34C5CC6CCC(O)(C5C(=O)O6)C(C(O)C23)C14 (stereo not given)	> 100 µM	> 100 µM	> 100 µM	> 100 µM	> 100 µM	> 100 µM	> 100 µM	> 100 µM	> 100 µM	> 100 µM
CC1=NN(C(=O)CC(=O)Nc2cccc(C)c2)C(=O)C1N=Nc1ccc(S(=O)(=O)CCOS(=O)(=O)O)cc1 (stereo not given)	12.9 µM	17.9 µM	66.2 µM	23.1 µM	10.5 µM	12.6 µM	13.6 µM	12.4 µM	28 µM	8.42 µM
CC(O)c1nc(C#N)c(N)o1 (stereo not given)	> 100 µM	> 100 µM	> 100 µM	> 100 µM	> 100 µM	> 100 µM	> 100 µM	> 100 µM	> 100 µM	> 100 µM
O=C(O)C(Cc1ccccc1)NCc1c(O)ccc2c(-c3ccccc3)cc(=O)oc12 (stereo not given)	> 100 µM	> 100 µM	> 100 µM	> 100 µM	> 100 µM	> 100 µM	> 100 µM	> 100 µM	> 100 µM	> 100 µM
N#CCCC(C=O)(CCC#N)CCC#N	> 100 µM	> 100 µM	> 100 µM	> 100 µM	> 100 µM	> 100 µM	> 100 µM	> 100 µM	> 100 µM	> 100 µM
O=C(CNc1ccccc1C(=O)O)Nn1cnc2ccc(S(=O)(=O)Nc3ccccc3C(=O)O)cc2c1=O	> 100 µM	> 100 µM	> 100 µM	> 100 µM	> 100 µM	> 100 µM	> 100 µM	> 100 µM	> 100 µM	> 100 µM
C=C1c2nc3ccccc3n2C=C(c2ccc(C)cc2)N1c1ccc(OC)cc1	> 100 µM	> 100 µM	> 100 µM	> 100 µM	> 100 µM	> 100 µM	> 100 µM	> 100 µM	> 100 µM	> 100 µM
NC(=O)[C@H](Cc1ccc(O)cc1)Nc1c(O)c2c(c(O)c1Cl)C(=O)C=CC2=O	4.62 µM	4.72 µM	> 10 µM	> 10 µM	> 6.36 µM	3.27 µM	3.78 µM	4.66 µM	> 10 µM	3.36 µM
Clc1ccc2c(NCCCCCCNc3ccnc4cc(Cl)ccc34)ccnc2c1	4.15 µM	5.8 µM	17.9 µM	14.6 µM	10.6 µM	3.85 µM	32.6 µM	14.5 µM	24.8 µM	4.62 µM
CC(=O)NC1C(OCc2ccccc2)OC(CO)C(O)C1OC(C)C(=O)N[C@@H](C)C(=O)N[C@H](CCC(=O)NCCNCCNc1c2ccccc2nc2cccc([N+](=O)[O-])c12)C(N)=O (stereo not given in full)	0.921 µM	0.169 µM	5.19 µM	0.753 µM	0.607 µM	0.512 µM	0.221 µM	0.672 µM	2.14 µM	0.198 µM
CC(C)(CO[C@H]1C[C@H]2CC[C@@]1(C)C2(C)C)[N+](=O)[O-]	27.9 µM	43.4 µM	33.9 µM	36.9 µM	25.8 µM	29.1 µM	40.3 µM	> 100 µM	> 100 µM	31.4 µM
O=C1Nc2ccccc2/C1=C\c1c(Cl)n(-c2ccccc2)c2ccccc12	7.71 µM	7.63 µM	12.9 µM	36.5 µM	16 µM	6.26 µM	10.4 µM	9.64 µM	6.45 µM	4.13 µM
COC1(CC[C@@H](C)COC2OC(CO)C(O)C(O)C2O)OC2C[C@H]3[C@@H]4CC[C@H]5C[C@@H](OC6OC(CO)C(OC7OC(CO)C(O)C(O)C7O)C(O)C6OC6OC(C)C(O)C(O)C6O)[C@H](O)C[C@]5(C)[C@H]4CC[C@]3(C)C2[C@@H]1C (stereo not given in full)	4.04 µM	12.8 µM	4.57 µM	3.5 µM	3.31 µM	3.67 µM	3.33 µM	3.19 µM	3.99 µM	6.69 µM
O=S(=O)(Nc1nc2ccccc2nc1N1CCCCCC1)c1ccccc1	> 100 µM	37.4 µM	> 100 µM	99.2 µM	33.9 µM	> 100 µM	> 100 µM	> 100 µM	> 100 µM	> 100 µM
COc1cc(CCNC2=CC(=O)c3nc[nH]c3C2=O)ccc1O	> 100 µM	73.3 µM	35.8 µM	34.8 µM	> 100 µM	48 µM	26.1 µM	52.8 µM	> 100 µM	56.5 µM
O=CCCCCCOCc1ccccc1	68.1 µM	> 100 µM	> 100 µM	> 100 µM	> 100 µM	> 67.9 µM	> 100 µM	> 100 µM	> 100 µM	> 100 µM
COC(=O)c1sc(=O)sc1SCc1cccc(CSc2sc(=O)sc2C(=O)OC)c1	31.4 µM	95.6 µM	> 100 µM	> 100 µM	> 100 µM	> 100 µM	49.5 µM	> 100 µM	86.1 µM	> 100 µM
